pIC50: −log10 of the molar value. Read-outs that look alike come from different tables or passages of the source. Square brackets hold non-standard residues; d marks the D form. Peptide text beside a SMILES is read from it. Nrpe = C[C@@H](NCC(=O)O)c1ccccc1; Nspe = C[C@H](NCC(=O)O)c1ccccc1; Nphe = O=C(O)CNCc1ccccc1; Nlys = NCCCCNCC(=O)O
Legend:
human erythrocytes = assay: Hemolysis assay; format: cell-based
Method: Hemolysis assays. Erythrocytes were isolated from freshly drawn, heparanized human blood and resuspended to 20 vol % in PBS (pH 7.4). In a 96-well microtiter plate, 100 μL erythrocyte suspension was added to 100 μL peptoid solution in PBS (prepared by 1:2 serial dilutions), or 100 μL PBS in the case of negative controls. 100% hemolysis wells contained 100 μL blood cell suspension with 100 μL 0.2 vol % Triton X-100. The plate was incubated for 1 h at 37° C., then each well was diluted with 150 μL PBS. The plate was then centrifuged at 1200 g for 15 min, 100 μL of the supernatant from each well transferred to a fresh microtiter plate, and A350 measured.
Hemolysis assays. Erythrocytes were isolated from freshly drawn, heparanized human blood and resuspended in PBS (pH 7.4) to make a 20% volume suspension. Peptoid solutions were prepared by serial dilution (2:1) in a 96-well microtiter plate. For test wells, 100 μL of erythrocyte suspension was added to 100 μL of peptoid solution in PBS; PBS without peptoid was used as the negative control and 0.2 vol % Triton X-100 as the positive control that indicates 100% hemolysis. After 1 hour incubation at 37° C., each well was diluted with 150 μL PBS. Plates were then centrifuged at 1,200×g for 15 minutes to pellet the cells. 30 μL of the supernatant from each well were transferred to the corresponding well of a second 96-well plate that contains 70 μL PBS.

[1] = MTS assay, metabolic inhibition; format: cell-based, mouse
Method: (§1) The potencies of all compounds were determined against representative Gram-negative (E. coli ATCC 35218) and Gram-positive (B. subtilis ATCC 6633) biosafety level 1 (BSL1) organisms. In addition to hemolytic activity, the conventional measure of toxicity to mammalian cells, the effect of each ampetoid on NIH 3T3 mouse fibroblast cells was determined using the MTS tetrazolium salt-based calorimetric assay. While hemolysis measures the degree to which erythrocytes are lysed, the MTS assay indirectly quantifies the extent to which cellular metabolic activity is inhibited.
MTS assays. NIH/3T3 cells (ATCC Corporation) cultured at 37° C. and 5% CO2 in complete Dulbecco's modified eagle's media (CDMEM) supplemented with 1% sodium pyruvate, 1% penicillin-streptomycin, 1.5 g/L NaHCO3, and 10% fetal bovine serum. Cells were seeded at a density of 5,000 cells per well for NIH/3T3 cells in 96-well plates (100 μl total volume). A peptoid solution plate (100 μL total volume per well) was prepared by serial dilution of aqueous peptoid stock solution in Hank's balanced salt solution (HBSS) media. The day-old cell monolayers were washed with HBSS and media was replaced with 100 μL HBSS. The contents of the peptoid solution plate were transferred onto corresponding wells of the cell monolayer plate, and 40 μL MTS reagent (Promega, Inc.) was added to each well. After incubating for 3 hours at 37° C., absorbance at 490 nm was determined. […] The average of six replicates is reported.

B. subtilis (ATCC 6633) = format: cell-based; settings: ATCC 6633
Method: (§2) Whereas the preceding generation of molecules was designed to elucidate structure function relationships of specific molecular parameters (chirality, length, hydrophobicity, etc.), another generation compounds were designed explicitly to explore effects on selectivity. Antimicrobial activity of these compounds was tested against bacterial strains E. coli (ATTC 35218) and B. subtilis (ATTC 6633) in cation-adjusted MHB using the microdilution protocols previously described. The sequences, antimicrobial activities, hemolytic activities, and metabolic inhibitory concentrations against NIH 3T3 mouse fibroblast cells are summarized in Table 3 and the rationale of their design is described below.
as §1
(§3) Screening antibacterial assays. MICs were determined in 96-well microtiter plates in accordance with CLSI M7-A6 protocols. Peptoid solutions with 50 μL total volume were prepared using 2:1 serial dilutions. 50 μL of bacteria inoculum (1×10^6 CFU/mL) prepared in cation-adjusted Mueller-Hinton broth (CAMHB) was added to test wells. Control wells contained 100 μL MHB (no growth) or 50 μL inoculums with 50 μL MHB with no peptoid. […] Reported values were reproducible over three experiments, each containing two parallel trials.

E. coli (ATCC 35218) = format: cell-based; settings: ATCC 35218
Method: as §2, §1, §3

[2] = Table 6, NIH 3T3 mouse fibroblast cells

pIC50 [1]	B. subtilis MIC (B. subtilis (ATCC 6633))	E. coli MIC (E. coli (ATCC 35218))	SMILES	HD10 (human erythrocytes; Table 6)	HD50 (human erythrocytes; Table 6)	pIC50 [1, 2]	B. subtilis MIC (B. subtilis (ATCC 6633); Table 6)	E. coli MIC (E. coli (ATCC 35218); Table 6)	HD10 (human erythrocytes)	HD50 (human erythrocytes)
–	–	–	C[C@H](c1ccccc1)N(CC(=O)N(CC(N)=O)[C@@H](C)c1ccccc1)C(=O)CN(CCCCN)C(=O)CN(C(=O)CN(C(=O)CN(CCCCN)C(=O)CN(C(=O)CN(C(=O)CN(CCCCN)C(=O)CN(C(=O)CN(C(=O)CNCCCCN)[C@H](C)c1ccccc1)[C@@H](C)c1ccccc1)[C@H](C)c1ccccc1)[C@@H](C)c1ccccc1)[C@H](C)c1ccccc1)[C@@H](C)c1ccccc1 [1-Nrpe2,5,8,11, H-(Nlys-Nrpe-Nspe)4-NH2] (H-[Nlys][Nrpe][Nspe][Nlys][Nrpe][Nspe][Nlys][Nrpe][Nspe][Nlys][Nrpe][Nspe]-NH2)	22 µM	95 µM	5.28	1.6 µM	6.3 µM	–	–
–	–	–	C[C@H](c1ccccc1)N(CC(N)=O)C(=O)CN(C(=O)CN(CCCCN)C(=O)CN(C(=O)CN(C(=O)CN(CCCCN)C(=O)CN(C(=O)CN(C(=O)CN(CCCCN)C(=O)CN(C(=O)CN(C(=O)CNCCCCN)[C@@H](C)c1ccccc1)[C@H](C)c1ccccc1)[C@@H](C)c1ccccc1)[C@H](C)c1ccccc1)[C@@H](C)c1ccccc1)[C@H](C)c1ccccc1)[C@@H](C)c1ccccc1 [1-Nrpe3,6,9,12, H-(Nlys-Nspe-Nrpe)4-NH2]	16 µM	67 µM	5.42	1.6 µM	6.3 µM	–	–
4.15	1.6 µM	50 µM	C[C@@H](c1ccccc1)N(CC(N)=O)C(=O)CN(C(=O)CN(CCCCN)C(=O)[C@@H]1CCCN1C(=O)CN(C(=O)CN(CCCCN)C(=O)CN(C(=O)CN(C(=O)CN(CCCCN)C(=O)[C@@H]1CCCN1C(=O)CN(C(=O)CNCCCCN)[C@@H](C)c1ccccc1)[C@@H](C)c1ccccc1)[C@@H](C)c1ccccc1)[C@@H](C)c1ccccc1)[C@@H](C)c1ccccc1 [1-Pro3,9, H-(Nlys-Nspe-L-Pro-Nlys-Nspe-Nspe)2-NH2] (H-[Nlys][Nspe]P[Nlys][Nspe][Nspe][Nlys][Nspe]P[Nlys][Nspe][Nspe]-NH2)	–	–	–	–	–	>200/>200 μM	>200/>200 μM
4.92	1.6 µM	12.5 µM	C[C@@H](c1ccccc1)N(CC(N)=O)C(=O)CN(C(=O)CN(CCCCN)C(=O)CN(C(=O)CN(C(=O)CN(CCCCN)C(=O)CN(C(=O)CN(C(=O)CN(CCCCN)C(=O)[C@@H]1CCCN1C(=O)CN(C(=O)CNCCCCN)[C@@H](C)c1ccccc1)[C@@H](C)c1ccccc1)[C@@H](C)c1ccccc1)[C@@H](C)c1ccccc1)[C@@H](C)c1ccccc1)[C@@H](C)c1ccccc1 [1-Pro3, H-Nlys-Nspe-L-Pro-(Nlys-Nspe-Nspe)3-NH2] (H-[Nlys][Nspe]P[Nlys][Nspe][Nspe][Nlys][Nspe][Nspe][Nlys][Nspe][Nspe]-NH2)	–	–	–	–	–	74 µM	> 200 µM
4.80	0.78 µM	50 µM	C[C@H](NCC(=O)N(CCCCN)CC(=O)N(CC(=O)N(CCCCN)CC(=O)N(CCCCN)CC(=O)N(CC(=O)N(CC(=O)N(CCCCN)CC(=O)N(CC(=O)N(CCCCN)CC(=O)N(CCCCN)CC(=O)N(CC(=O)N(CC(=O)N(CCCCN)CC(=O)N(CC(N)=O)[C@@H](C)c1ccccc1)[C@@H](C)c1ccccc1)[C@@H](C)c1ccccc1)[C@@H](C)c1ccccc1)[C@@H](C)c1ccccc1)[C@@H](C)c1ccccc1)[C@@H](C)c1ccccc1)c1ccccc1 [1B15mer-Nlys4,10, H-(Nspe-Nlys-Nspe-Nlys-Nlys-Nspe)2-Nspe-Nlys-Nspe-NH2] (H-[Nspe][Nlys][Nspe][Nlys][Nlys][Nspe][Nspe][Nlys][Nspe][Nlys][Nlys][Nspe][Nspe][Nlys][Nspe]-NH2)	–	–	–	–	–	>200/>200 μM	>200/>200 μM
5.31	1.6 µM	6.3 µM	C[C@H](NCC(=O)N(CCCCN)CC(=O)N(CC(=O)N(CC(=O)N(CCCCN)CC(=O)N(CC(=O)N(CC(=O)N(CCCCN)CC(=O)N(CC(=O)N(CC(=O)N(CCCCN)CC(=O)N(CC(N)=O)[C@@H](C)c1ccccc1)[C@@H](C)c1ccccc1)[C@@H](C)c1ccccc1)[C@@H](C)c1ccccc1)[C@@H](C)c1ccccc1)[C@@H](C)c1ccccc1)[C@@H](C)c1ccccc1)c1ccccc1 [1B, H-(Nspe-Nlys-Nspe)4-NH2] (H-[Nspe][Nlys][Nspe][Nspe][Nlys][Nspe][Nspe][Nlys][Nspe][Nspe][Nlys][Nspe]-NH2)	–	–	–	–	–	–	> 100 µM
4.08	0.78 µM	50 µM	C[C@H](NCC(=O)N(CCCCN)CC(=O)N(CC(=O)N(CCCCN)CC(=O)N(CCCCN)CC(=O)N(CC(=O)N(CC(=O)N(CCCCN)CC(=O)N(CC(=O)N(CCCCN)CC(=O)N(CCCCN)CC(=O)N(CC(N)=O)[C@@H](C)c1ccccc1)[C@@H](C)c1ccccc1)[C@@H](C)c1ccccc1)[C@@H](C)c1ccccc1)[C@@H](C)c1ccccc1)c1ccccc1 [1B-Nlys4,10, H-(Nspe-Nlys-Nspe-Nlys-Nlys-Nspe)2-NH2] (H-[Nspe][Nlys][Nspe][Nlys][Nlys][Nspe][Nspe][Nlys][Nspe][Nlys][Nlys][Nspe]-NH2)	–	–	–	–	–	>200/>200 μM	>200/>200 μM
5.25	1.6 µM	6.3 µM	C[C@H](NCC(=O)N(CC(=O)N(CCCCN)CC(=O)N(CC(=O)N(CC(=O)N(CCCCN)CC(=O)N(CC(=O)N(CC(=O)N(CCCCN)CC(=O)N(CC(=O)N(CC(=O)N(CCCCN)CC(N)=O)[C@@H](C)c1ccccc1)[C@@H](C)c1ccccc1)[C@@H](C)c1ccccc1)[C@@H](C)c1ccccc1)[C@@H](C)c1ccccc1)[C@@H](C)c1ccccc1)[C@@H](C)c1ccccc1)c1ccccc1 [1C, H-(Nspe-Nspe-Nlys)4-NH2] (H-[Nspe][Nspe][Nlys][Nspe][Nspe][Nlys][Nspe][Nspe][Nlys][Nspe][Nspe][Nlys]-NH2)	–	–	–	–	–	25 µM	> 100 µM
4.96	0.78 µM	6.3 µM	C[C@@H](c1ccccc1)N(CC(=O)N(CC(=O)N(CCCCN)CC(=O)N(CC(=O)N(CC(=O)N(CCCCN)CC(=O)N(CC(=O)N(CC(=O)N(CCCCN)CC(=O)N(CC(=O)N(CC(N)=O)Cc1ccccc1)Cc1ccccc1)Cc1ccccc1)Cc1ccccc1)Cc1ccccc1)Cc1ccccc1)Cc1ccccc1)C(=O)CNCCCCN [1ach-Nspe2, H-(Nlys-Nspe-Npm)-(Nlys-Npm-Npm)3-NH2] (H-[Nlys][Nspe][Nphe][Nlys][Nphe][Nphe][Nlys][Nphe][Nphe][Nlys][Nphe][Nphe]-NH2)	–	–	–	–	–	160 µM	> 200 µM
4.27	0.78 µM	12.5 µM	C[C@@H](c1ccccc1)N(CC(=O)N(CCCCN)CC(=O)N(CC(=O)N(CC(=O)N(CCCCN)CC(=O)N(CC(=O)N(CC(=O)N(CCCCN)CC(N)=O)[C@@H](C)c1ccccc1)[C@@H](C)c1ccccc1)[C@@H](C)c1ccccc1)[C@@H](C)c1ccccc1)C(=O)CN(C(=O)CNCCCCN)[C@@H](C)c1ccccc1 [110mer, H-(Nlys-Nspe-Nspe)3-Nlys-NH2] (H-[Nlys][Nspe][Nspe][Nlys][Nspe][Nspe][Nlys][Nspe][Nspe][Nlys]-NH2)	–	–	–	–	–	–	>200/>200 μM

Reference: US20100036088A1, “Selective poly-N-substituted glycine antibiotics” (priority 2008, published 2010)
